From publication PMC5799307, “Creation of a long-acting nanoformulated dolutegravir” (Nature Communications, 2018) come the findings set out here.

The structures appear in SMILES notation.

A short description of series [1]: Blood and tissue DTG levels and animal weights in hu-PBL-NSG mice. It is filed as in vivo. The following applies: NOD/scid-IL-2Rγc^null (NSG), mouse, intramuscular, 45 mg/kg DTG-eq.; kidney, day 39; read-out: tissue DTG level. How it is done: NOD/scid-IL-2Rγc^null (NSG) mice (6–7 weeks of age; Jackson Labs, Bar Harbor, ME) were administered a single IM injection in a volume of 40 µL/25 g mouse of NDTG or NMDTG at a concentration of 45 mg/kg DTG-eq. on day 0 for measures of relative viral restriction. Mice were then reconstituted with 25 × 10^6 human peripheral blood lymphocytes (hu-PBL) per mouse 4 or 19 days post drug treatment by IP injection. Next, mice were challenged 10 days post hu-PBL reconstitution with HIV-1ADA at 14 or 29 days post drug treatment by IP injection at a TCID50 of 2 × 10^4 per mouse. […] Plasma was saved for viral load (HIV-1 RNA) quantitation using the Roche Amplicor and Taqman-48 system [HIV-1 kit V2.0 according to the manufacturer’s instructions (Indianapolis, IN)]. Blood and tissue drug concentrations were determined by UPLC-MS/MS as described above. […] The number of HIV-1p24+ and HLA-DP/DQ/DR+ cells per section were counted and expressed as percentage of HIV-1p24+ cells/HLA-DP/DQ/DR+ cells per section. […] Plasma was used for quantitative viral load (measurements of HIV-1 RNA) using the Roche Amplicor and Taqman-48 system. Blood and tissue drug concentrations were determined by UPLC-MS/MS as described above. […]

Series [2] in a line: Pharmacokinetics and biodistribution in Balb/cJ mice, single IM dose. The following applies: male, mouse, in vivo. Here is the method:
Male Balb/cJ mice (6–8 weeks of age; Jackson Labs, Bar Harbor, ME) were injected with NDTG or NMDTG (45 mg/kg DTG-eq.) intramuscularly (IM; caudal thigh muscle) in a volume of 40 µL/25 g mouse. For injections, NDTG and NMDTG were diluted to 28.1 mg DTG/mL in endotoxin-free water and 42.3 mg MDTG/mL in HEPES buffer, respectively. Twenty-five microliters of whole blood was collected by cheek puncture into 1 mL ACN at 1, 3, 7, 14, 21, 28, 35, 42, 49, and 56 days after drug administration. Animals were humanely euthanized using isoflurane followed by cervical dislocation at 28 and 56 days, and tissues (spleen, liver, lymph nodes, lungs, kidneys, gut-associated lymphoid tissue (GALT), and brain) were collected for drug quantitation. Drug concentration in whole blood and tissues was determined by UPLC-MS/MS using a Waters Acquity UPLC- Xevo TQ-S micro mass spectrometry system (Milford, MA). For blood analysis, 10 µL of internal standard (IS) solution was added to each sample. […] MDTG was quantified using a 7-min gradient of the same mobile phases at a flow rate of 0.35 mL/min. […] DTG and MDTG were detected at cone voltages of 10 V and 16 V and collision energies of 25 V and 44 V, respectively. […] Spectra were analyzed and quantified by MassLynx software version 4.1. Quantitation was based upon drug peak area to internal standard peak area ratios.

On to `C[C@@H]1CCO[C@H]2Cn3cc(C(=O)NCc4ccc(F)cc4F)c(=O)c(O)c3C(=O)N12` [DTG, dolutegravir], for which the concentration at 39 days in series [1] is 4.1 ng/g.

With `CCCCCCCCCCCCCC(=O)Oc1c2n(cc(C(=O)NCc3ccc(F)cc3F)c1=O)C[C@@H]1OCC[C@@H](C)N1C2=O` [MDTG], in series [2], the “time prodrug was detectable in blood” value is recorded as not above 3 days.
